Data from ChEMBL document CHEMBL1150558, “Enantiomeric Composition of Trans-Dihydrodiols Formed from Meso-K-Region Arene Oxides by Microsomal Epoxide Hydrolase” (Bioorg Med Chem Lett, 1992).

Assays:
[1] = target: T1, Epoxide hydrolase 1 (Rattus norvegicus) (UniProt P07687); assay: Percent Enantiomeric composition (R,R) of trans-Dihydrodiol formed by Microsomal Epoxide Hydrolase from rat liver at 50 mM Tris-HCl buffer, pH 8.4 at 37 degrees C
T1 sequence (whole entry): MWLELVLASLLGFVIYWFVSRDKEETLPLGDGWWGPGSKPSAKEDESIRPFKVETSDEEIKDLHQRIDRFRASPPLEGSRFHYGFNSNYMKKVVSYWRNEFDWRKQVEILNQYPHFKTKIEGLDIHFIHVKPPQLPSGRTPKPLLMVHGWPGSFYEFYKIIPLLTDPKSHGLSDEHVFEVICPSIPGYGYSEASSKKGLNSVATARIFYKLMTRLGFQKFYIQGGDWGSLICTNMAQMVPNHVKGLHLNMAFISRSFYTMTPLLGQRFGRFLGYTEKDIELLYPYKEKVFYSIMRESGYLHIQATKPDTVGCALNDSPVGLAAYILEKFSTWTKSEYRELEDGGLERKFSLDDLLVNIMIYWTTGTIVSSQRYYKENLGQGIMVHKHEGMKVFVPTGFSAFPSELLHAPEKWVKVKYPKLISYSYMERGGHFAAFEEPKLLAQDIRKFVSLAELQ

[2] = target: T1, Epoxide hydrolase 1 (Rattus norvegicus); assay: Percent Enantiomeric composition (S,S) of trans-Dihydrodiol formed by Microsomal Epoxide Hydrolase from rat liver at 50 mM Tris-HCl buffer, pH 8.4 at 37 degrees C
[3] = target: Epoxide hydrolase 1 (Oryctolagus cuniculus) (UniProt P04068); assay: Percent Enantiomeric composition (S,S) of trans-Dihydrodiol formed by Microsomal Epoxide Hydrolase from rabbit liver microsomes
[4] = target: Epoxide hydrolase 1 (Oryctolagus cuniculus) (UniProt P04068); assay: Percent Enantiomeric composition (R,R) of trans-Dihydrodiol formed by Microsomal Epoxide Hydrolase from rabbit liver microsomes

Chain of Epoxide hydrolase 1 (Oryctolagus cuniculus) (P04068 whole entry, looked up): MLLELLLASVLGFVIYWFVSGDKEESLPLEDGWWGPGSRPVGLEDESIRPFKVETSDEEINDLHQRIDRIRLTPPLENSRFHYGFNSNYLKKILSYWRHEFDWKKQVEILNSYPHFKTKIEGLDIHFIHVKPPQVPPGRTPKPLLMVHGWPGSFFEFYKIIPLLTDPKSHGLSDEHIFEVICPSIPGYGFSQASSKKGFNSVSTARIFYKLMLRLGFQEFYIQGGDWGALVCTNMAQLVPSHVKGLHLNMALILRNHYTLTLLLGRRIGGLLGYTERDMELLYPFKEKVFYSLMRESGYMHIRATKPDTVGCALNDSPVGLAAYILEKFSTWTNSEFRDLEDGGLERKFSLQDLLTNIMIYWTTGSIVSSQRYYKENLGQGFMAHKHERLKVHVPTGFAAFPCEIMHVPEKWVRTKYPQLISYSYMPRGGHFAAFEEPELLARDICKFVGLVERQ

Enantiomeric composition [1] [%]	Enantiomeric composition [2] [%]	Enantiomeric composition [3] [%]	Enantiomeric composition [4] [%]	Compound
42	58			c1ccc2c(c1)-c1ccccc1C1OC21 (stereo not drawn)
		18	82	C1=CC2OC2C=C1 (stereo not drawn)
83	17			c1ccc2c(c1)c1cccc3c1c1c(cccc21)C1OC31 (stereo not drawn)
86	14			c1cc2c3c(c1)ccc1cccc(c13)C1OC21 (stereo not drawn)
